From patent US20130045948A1, “AZOCYCLIC INHIBITORS OF FATTY ACID AMIDE HYDROLASE” (E I DU PONT DE NEMOURS AND COMPANY, priority 2009, published 2013)
Values belong to the molecule of their own block, whether it stands above or below them.

How the values were obtained:
[1] = test system: female Cr1:CD1(ICR) mice; experiment: Tail immersion assay in mice (analgesic potential, in combination with anandamide); settings: for % MPE (percent of the maximum possible effect (test-baseline)/(10-baseline)) / Test Time / Baseline Time: mean; for Baseline Time: prior to administration of compounds, tail in water 52+/−1° C.; for analgesic effects at the rate tested (conclusion) / % of the treated animals exhibiting the maximum measured response time of 10 sec: 10 mg/kg i.p. plus anandamide 50 mg/kg
Description: Test substances were injected once by intraperitoneal (i.p.) route to female Cr1:CD1(ICR) mice. The tail immersion assay was conducted prior to administration of compounds to establish baseline values and again after administration of compounds.
Analgesia was evaluated in female mice by immersing approximately 3.5 cm of each tail into water that was maintained at 52+/−1° C. for a maximum of 10 seconds (sec). The length of time until the animal removed its tail from the water or made a significant tail movement was measured. If the response time was less than 5 sec, a second trial was conducted.
Based on the results of the preliminary study, the time interval between administration of the test substances and anandamide was established as 40 minutes. In addition, the time interval between administration of anandamide and conducting the tail immersion assay was established to be 40 minutes.
The formulations were made on the day of dosing and administered once by intraperitoneal route.

[2] = cited from earlier work
[3] = target: T1, recombinant human FAAH (MBP-ΔTM-FAAH) (Homo sapiens, UniProt O00519); experiment: FAAH assay, fluorogenic substrate D-AMC; type: biochemical; settings: D-AMC 5 μM, pH 8.0, 37° C.
T1 construct: The region of the gene corresponding to amino acids 34 to 579 was cloned into pMAL-c4x; made in house; host or cells: E. coli T7 Express
T1 sequence (O00519 34-579): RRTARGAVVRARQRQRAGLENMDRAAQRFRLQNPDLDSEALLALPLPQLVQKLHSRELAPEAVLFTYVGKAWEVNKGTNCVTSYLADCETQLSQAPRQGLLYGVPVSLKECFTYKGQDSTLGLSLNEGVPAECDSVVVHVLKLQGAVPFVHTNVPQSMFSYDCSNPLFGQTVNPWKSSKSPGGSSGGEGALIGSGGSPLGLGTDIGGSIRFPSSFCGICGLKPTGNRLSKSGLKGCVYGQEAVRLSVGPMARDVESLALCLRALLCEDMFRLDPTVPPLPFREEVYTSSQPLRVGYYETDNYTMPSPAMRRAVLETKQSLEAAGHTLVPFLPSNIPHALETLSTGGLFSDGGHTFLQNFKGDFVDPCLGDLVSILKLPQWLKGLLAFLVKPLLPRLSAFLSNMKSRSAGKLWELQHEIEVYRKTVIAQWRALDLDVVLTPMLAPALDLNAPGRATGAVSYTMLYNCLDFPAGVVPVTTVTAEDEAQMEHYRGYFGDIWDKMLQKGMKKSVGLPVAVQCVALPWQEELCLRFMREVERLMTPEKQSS
Description: E. coli T7 Express cells, containing the FAAH constructs, were used for expression of protein by induction with IPTG (isopropyl-β-D-thiogalactopyranoside) (100 μM) overnight at room temperature in Lennox Broth with 0.2% glucose. After harvest, the cells were resuspended in 20 mM Hepes buffer (pH 7.4) containing 200 mM NaCl, 2 mM DTT (dithiothreitol). The cell suspension was lysed by sonication, and the cell debris removed by centrifugation. […] The enzyme was eluted using 15 mM maltose as per manufacturer's (New England BioLabs, Inc.) instruction. Fractions containing FAAH were concentrated and further purified using Sephacryl™ 5100 (HIPrep™ 26/60, GE Healthcare, Inc.) chromatography. […]
FAAH assay—Enzyme activity was measured using the fluorogenic substrate, decanoyl 7-amino-4-methylcoumarin (D-AMC) as described by Kage, K. L. et al. J. of Neuroscience Methods 2007, 161, 47-54. […] Reactions were carried out in black 96-well microplates (Costar, Inc) using a SpectraMax Gemini™ (Molecular Devices, Inc.) fluorescence plate reader in a reaction volume of 200 μL per well at 37° C. Reaction rates were monitored at an emission wavelength of 430 nm using an excitation wavelength of 351 nm over 30 to 40 minutes. Experimental compounds were initially evaluated at a single concentration of 2 μM.

[4] = anandamide 50 mg/kg i.p. alone (negative control), assay 40 minutes after
[5] = 10 mg/kg i.p., anandamide 50 mg/kg i.p. 40 minutes later, assay 40 minutes after anandamide
[6] = 10 mg/kg i.p., anandamide 50 mg/kg i.p. 40 minutes later, assay 40 minutes after anandamide, maximum 10 sec

SMILES: CCCCC/C=C\C/C=C\C/C=C\C/C=C\CCCC(=O)NCCO [Anandamide, reference compound]
% MPE (percent of the maximum possible effect (test-baseline)/(10-baseline)) [1, 4]: 20.3% | Test Time [1, 4]: 6.7 s | Baseline Time ([1]; maximum 10 sec): 6.9 s | causing hypothermia or analgesia ([2]; anandamide alone): largely ineffective

SMILES: O=C(Nc1ccccc1)N1CCC(c2nc(C3=NOC(c4ccccc4)C3)cs2)CC1 (stereo not drawn) [Compound 1, 4-[4-(4,5-dihydro-5-phenyl-3-isoxazolyl)-2-thiazolyl]-N-phenyl-1-piperidinecarboxamide]
analgesic effects at the rate tested (conclusion) [1]: no analgesic effects | % MPE (percent of the maximum possible effect (test-baseline)/(10-baseline)) [1, 5]: 20.2% | Test Time [1, 6]: 5.0 s | Baseline Time ([1]; maximum 10 sec): 3.5 s

SMILES: O=C(Oc1ccccc1)N1CCC(c2nc(C3=NOC(c4ccccc4)C3)cs2)CC1 (stereo not drawn) [Compound 11, phenyl 4-[4-(4,5-dihydro-5-phenyl-3-isoxazolyl)-2-thiazolyl]-1-piperidinecarboxylate]
% of the treated animals exhibiting the maximum measured response time of 10 sec [1]: 100% | analgesic effects at the rate tested (conclusion) [1]: analgesic effects | % MPE (percent of the maximum possible effect (test-baseline)/(10-baseline)) [1, 5]: 100.0% | Test Time [1, 6]: 10.0 s | Baseline Time ([1]; maximum 10 sec): 5.8 s

SMILES: O=C(Nc1nccs1)N1CCC(c2nc(C3=NOC(c4ccccc4)C3)cs2)CC1 (stereo not drawn) [Compound 49]
analgesic effects at the rate tested (conclusion) [1]: no analgesic effects | % MPE (percent of the maximum possible effect (test-baseline)/(10-baseline)) [1, 5]: −4.0% | Test Time [1, 6]: 6.4 s | Baseline Time ([1]; maximum 10 sec): 7.5 s

IC50 [3]: 29 nM
SMILES: O=C(Oc1ccccc1)N1CCC(c2nc(C3=NOC4(CCCc5ccccc54)C3)cs2)CC1 (stereo not drawn) [Compound 52]

SMILES: O=C(Oc1ccccc1Cl)N1CCC(c2nc(C3=NOC(c4ccccc4)C3)cs2)CC1 (stereo not drawn) [Compound 61]
% of the treated animals exhibiting the maximum measured response time of 10 sec [1]: 90% | analgesic effects at the rate tested (conclusion) [1]: analgesic effects | % MPE (percent of the maximum possible effect (test-baseline)/(10-baseline)) [1, 5]: 86.9% | Test Time [1, 6]: 9.4 s | Baseline Time ([1]; maximum 10 sec): 6.0 s

SMILES: O=C(CCCCCCc1ccccc1)c1ncc(-c2ccccn2)o1 [OL-135, reference compound]
% MPE (percent of the maximum possible effect (test-baseline)/(10-baseline)) [1, 5]: 61.5% | Test Time [1, 6]: 7.6 s | Baseline Time ([1]; maximum 10 sec): 4.1 s | analgesic effect ([2]; anandamide administered along with OL-135): significantly elevated
